According to patent US6531496B1 (Bayer Aktiengesellschaft, priority 1999, dated 2003):
Converted amounts (≈) assume the structure as drawn.

How the values were obtained:
Venturia inaequalis = assay: Venturia test (apple)/protective; format: in vivo; settings: 288 h, protective, evaluated 12 days after inoculation, read-out: Efficacy in %
Description: (§1) Venturia Test (Apple)/Protective Solvent: 47 parts by weight of acetone Emulsifier: 3 parts by weight of alkylaryl polyglycol ether To prepare a suitable active compound preparation, 1 part by weight of active compound is mixed with the stated amounts of solvent and emulsifier, and the concentrate is diluted with water to the desired concentration. To test for protective activity, young plants are sprayed with the active compound preparation at the application rate stated. After the spray coating has dried on, the plants are inoculated with an aqueous conidial suspension of the apple scab pathogen Venturia inaequalis and then remain for 1 day in an incubation cabinet at approx. 20° C. and 100% relative atmospheric humidity.

Penicillium brevicaule = assay: Minimum inhibitory concentration on malt extract agar; format: cell-based; settings: 2 weeks at 28° C.; for MIC: Penicillium, 336 h, read-out: Minimum inhibitory concentrations Penicillium brevicaule
Description: (§2) To confirm the activity against fungi (Penicillium brevicaule, Chaetomium globosum, Aspergillus Niger), the minimum inhibitory concentrations (MICs) of agents according to the invention are determined:
(§3) Active compounds according to the invention are added in concentrations of from 0.1 mg/l to 5 000 mg/l to an agar prepared using malt extract. […] The MIC is the lowest concentration of active compound at which no growth whatsoever by the microbial species used occurs; it is indicated in the table which follows.

Plasmopara viticola = assay: Plasmopara test (grapevine)/protective; format: in vivo; settings: 144 h, protective, evaluated 6 days after inoculation, read-out: Efficacy in %
Description: as §1, with “Plasmopara” for “Venturia”, “(Grapevine)/Protective” for “(Apple)/Protective”, “spore” for “conidial”, “Plasmopara viticola” for “the apple scab pathogen Venturia inaequalis”, “a” for “100%”, “humidity of 100%. […] The plants are then moistened and placed in an incubation cabinet for 1 day.” for “humidity.”

Chaetomium globosum = assay: Minimum inhibitory concentration on malt extract agar; format: cell-based; settings: 2 weeks at 28° C.
Description: as §2, §3

Aspergillus Niger = assay: as above; format: cell-based; settings: 2 weeks at 28° C.
Description: as §2, §3

[1] = test system: greenhouse red spider mite (Tetranychus urticae); assay: Tetranychus test (OP-resistant/immersion treatment); format: in vivo; settings: active compound concentration 0.01%
Description: Tetranychus Test (OP-resistant/Immersion Treatment)
Solvent: 3 parts by weight of dimethylformamide
Emulsifier: 1 part by weight of alkylaryl polyglycol ether
To prepare a suitable active compound preparation, 1 part by weight of active compound is mixed with the stated amount of solvent and the stated amount of emulsifier, and the concentrate is diluted with water to the desired concentrations.
Bean plants (Phaseolus vulgaris) which are severely infested by all stages of the greenhouse red spider mite (Tetranychus urticae) are immersed into an active compound preparation of the desired concentration.
After the desired time, the efficacy is determined in %. 100% means that all the spider mites have been killed; 0% means that none of the spider mites have been killed.

[2] = logP by HPLC (EEC Directive 79/831 Annex V. A8, gradient method); format: physicochemical
[3] = test system: green peach aphid (Myzus persicae); assay: Myzus test; format: in vivo; settings: active compound concentration 0.01%
Description: Solvent: 6 parts by weight of dimethylformamide
67 parts by weight of methanol
Emulsifier: 2 parts by weight of alkylaryl polyglcol ether
To prepare a suitable active compound preparation, 1 part by weight of active compound is mixed with the stated amount of solvent and the stated amount of emulsifier, and the concentrate is diluted with emulsifier-containing water to the desired concentrations.
Field bean (Vicia faba) seedlings which are infested with the green peach aphid (Myzus persicae) are immersed into an active compound preparation of the desired concentration and placed into a plastic box.
After the desired period of time, the destruction is determined in %. 100% means that all the animals have been killed; 0% means that none of the animals have been killed.

[4] = gradient of acetonitrile/0.1% aqueous phosphoric acid, HPLC, gradient method, acetonitrile/0.1% aqueous phosphoric acid, Table 1
[5] = Table 3, intermediates of formula (II-a)
[6] = Table 4, starting materials of formula (IV)

SMILES	pest or weed control at 250 g/ha (Venturia inaequalis)	pest or weed control at 250 g/ha (Plasmopara viticola)	chromatographic logP [2, 4]	other results
Cc1cc(Cl)cc(OC2=NS(=O)(=O)CS2)c1 [Example 1, 3-(3-chloro-5-methylphenoxy)-1λ^6,4,2-dithiazole-1,1(5H)-dione]	≥ 90%	≥ 90%		MIC (Penicillium brevicaule): 10 to 100 µg/mL (≈ 36 to 360 µM)
O=S1(=O)CSC(Oc2ccccc2)=N1 [Example 1]				MIC (Penicillium brevicaule): 100 µg/mL (≈ 436 µM); MIC (Chaetomium globosum; Chaetomium globosum, 336 h, read-out: Minimum inhibitory concentrations Chaetomium globosum): 100 µg/mL (≈ 436 µM); MIC (Aspergillus Niger; Aspergillus niger, 336 h, read-out: Minimum inhibitory concentrations Aspergillus Niger): 100 µg/mL (≈ 436 µM)
CO/N=C(/C)c1ccc(OC2=NS(=O)(=O)CS2)cc1 [Example 20]			2.62	Destruction in % after 7^h ([1]; after 7^h): 95%; destruction after 7 days ([1]; after 7 days): 95%
CC(=O)c1ccc(OC2=NS(=O)(=O)CS2)cc1 [Example 21]		≥ 90%	1.69	
C/C(=N/OCc1ccccc1)c1ccc(OC2=NS(=O)(=O)CS2)cc1 [Example 22]			3.67	Destruction in % after 6^d [3]: 100%
C/C(=N/OC(C)(C)C)c1ccc(OC2=NS(=O)(=O)CS2)cc1 [Example 24]	≥ 90%		3.98	
O=C(c1ccccc1)c1cccc(OC2=NS(=O)(=O)CS2)c1 [Example 27]	≥ 90%	≥ 90%	2.66	
C/C(=N/OC(C)(C)C)c1cccc(OC2=NS(=O)(=O)CS2)c1 [Example 28]	≥ 90%	≥ 90%	3.94	
CC(=O)c1cccc(OC2=NS(=O)(=O)CS2)c1 [Example 40]	≥ 90%	≥ 90%	1.73	Destruction in % after 6^d [3]: 90%
CO/N=C(/c1ccccc1)c1cccc(OC2=NS(=O)(=O)CS2)c1 [Example 41]		≥ 90%	3.28	
C=CCO/N=C(/c1ccccc1)c1cccc(OC2=NS(=O)(=O)CS2)c1 [Example 42]		≥ 90%	3.72	
Cc1cc(Cl)cc(OC2=NS(=O)(=O)CS2)c1 [Example 92]				Minimum inhibitory concentrations Penicillium brevicaule (Penicillium brevicaule): 20 ppm; Minimum inhibitory concentrations Chaetomium globosum (Chaetomium globosum): 100 ppm; Minimum inhibitory concentrations Aspergillus Niger (Aspergillus Niger): 100 ppm
O=S1(=O)CSC(Oc2ccc(Cl)cc2)=N1 [Example 93]				Minimum inhibitory concentrations Penicillium brevicaule (Penicillium brevicaule): 20 ppm; MIC (Penicillium brevicaule): 10 to 100 µg/mL (≈ 37.9 to 379 µM); Minimum inhibitory concentrations Chaetomium globosum (Chaetomium globosum): 50 ppm; Minimum inhibitory concentrations Aspergillus Niger (Aspergillus Niger): 100 ppm
O=S1(=O)CSC(Oc2cccc(Cl)c2)=N1 [Example 94]	≥ 90%			Minimum inhibitory concentrations Penicillium brevicaule (Penicillium brevicaule): 20 ppm; MIC (Penicillium brevicaule): 10 to 100 µg/mL (≈ 37.9 to 379 µM); Minimum inhibitory concentrations Chaetomium globosum (Chaetomium globosum): 100 ppm; Minimum inhibitory concentrations Aspergillus Niger (Aspergillus Niger): 100 ppm
O=S1(=O)CSC(Oc2ccccc2Cl)=N1 [Example 95]	≥ 90%	≥ 90%		
O=S1(=O)CSC(Oc2ccc(Cl)cc2Cl)=N1 [Example 96]	≥ 90%	≥ 90%		
CC(C)(C)c1ccc(OC2=NS(=O)(=O)CS2)cc1 [Example 98]		≥ 90%		
O=S1(=O)CSC(Oc2ccc(Cl)cc2Cc2ccccc2)=N1 [Example 99]		≥ 90%		
O=S1(=O)CSC(Oc2ccc(Cl)c(Cl)c2)=N1 [Example 100]	≥ 90%	≥ 90%		Minimum inhibitory concentrations Penicillium brevicaule (Penicillium brevicaule): 20 ppm; MIC (Penicillium brevicaule): 10 to 100 µg/mL (≈ 33.5 to 335 µM); Minimum inhibitory concentrations Chaetomium globosum (Chaetomium globosum): 50 ppm; Minimum inhibitory concentrations Aspergillus Niger (Aspergillus Niger): 100 ppm
O=S1(=O)CSC(Oc2cccc(Cl)c2Cl)=N1 [Example 101]	≥ 90%	≥ 90%		
O=S1(=O)CSC(Oc2c(Cl)cccc2Cl)=N1 [Example 102]		≥ 90%		
Cc1ccc(OC2=NS(=O)(=O)CS2)cc1 [Example 105]	≥ 90%	≥ 90%		
Cc1cccc(OC2=NS(=O)(=O)CS2)c1 [Example 106]	≥ 90%	≥ 90%		
O=S1(=O)CSC(Oc2ccccc2Br)=N1 [Example 108]	≥ 90%		2.3	
O=S1(=O)CSC(Oc2ccccc2F)=N1 [Example 110]	≥ 90%		2.02	
O=S1(=O)CSC(Oc2cccc(F)c2)=N1 [Example 111]	≥ 90%		2.05	

SMILES	pest or weed control at 250 g/ha (Venturia inaequalis)	pest or weed control at 250 g/ha (Plasmopara viticola)	chromatographic logP [2, 4]	other results
CC(C)(C)c1cccc(OC2=NS(=O)(=O)CS2)c1 [Example 114]	≥ 90%		3.27	
Cc1ccc(Cl)c(OC2=NS(=O)(=O)CS2)c1 [Example 115]	≥ 90%		2.62	
O=S1(=O)CSC(Oc2cccc(Br)c2)=N1 [Example 119]		≥ 90%	2.47	
O=[N+]([O-])c1ccccc1OC1=NS(=O)(=O)CS1 [Example 128]		≥ 90%	1.84	
O=S1(=O)CSC(Oc2ccccc2OC(F)(F)F)=N1 [Example 133]	≥ 90%		2.63	
O=S1(=O)CSC(Oc2ccc3oc(=S)sc3c2)=N1 [Example 141]	≥ 90%	≥ 90%		chromatographic logP ([2]; Table 2): 2.64
O=C1Cc2cc(OC3=NS(=O)(=O)CS3)ccc2O1 [Example 143]				chromatographic logP ([2]; Table 2): 0.48
Cc1c(C(=O)O)c2cc(OC3=NS(=O)(=O)CS3)ccc2n1C [Example 144]				chromatographic logP ([2]; Table 2): 2.65
COC(=O)c1c(-c2ccc(-c3ccccc3)cc2)oc2ccc(OC3=NS(=O)(=O)CS3)cc12 [Example 146]				chromatographic logP ([2]; Table 2): 3.43
O=c1oc2cc(OC3=NS(=O)(=O)CS3)ccc2cc1-c1ccccc1 [Example 147]				chromatographic logP ([2]; Table 2): 2.77
Cc1nc2cc(OC3=NS(=O)(=O)CS3)ccc2s1 [Example 148]				chromatographic logP ([2]; Table 2): 1.92
CN1C(=O)Nc2cc(OC3=NS(=O)(=O)CS3)ccc2SC1=O [Example 149]				chromatographic logP ([2]; Table 2): 1.55
CC1(C)Oc2cccc(OC3=NS(=O)(=O)CS3)c2O1 [Example 150]				chromatographic logP ([2]; Table 2): 2.6
COC(=O)/C(C#N)=C1/Oc2ccc(OC3=NS(=O)(=O)CS3)cc2S1 [Example 151]				chromatographic logP ([2]; Table 2): 2.31
O=c1c2ccccc2oc2cc(OC3=NS(=O)(=O)CS3)ccc12 [Example 152]				chromatographic logP ([2]; Table 2): 2.52
O=S1(=O)CSC(Oc2cccc3sc4ccccc4c23)=N1 [Example 153]				chromatographic logP ([2]; Table 2): 3.31
O=S1(=O)CSC(Oc2ccc3c(c2)Nc2ccccc2S3(=O)=O)=N1 [Example 154]				chromatographic logP ([2]; Table 2): 1.93
O=S1(=O)CSC(Oc2ccc3[nH]ccc3c2)=N1 [Example 155]				chromatographic logP ([2]; Table 2): 1.86
O=S1(=O)CSC(Oc2ccc3c(c2)CCC3)=N1 [Example 157]				chromatographic logP ([2]; Table 2): 2.8
CC1(C)Cc2cccc(OC3=NS(=O)(=O)CS3)c2O1 [Example 158]				chromatographic logP ([2]; Table 2): 2.66
O=S1(=O)CC(c2ccccc2)SC(Cl)=N1 (stereo not drawn) [II-a-1]				chromatographic logP [2, 5]: 2.63
CC1(c2ccccc2)CS(=O)(=O)N=C(Cl)S1 (stereo not drawn) [II-a-2]				chromatographic logP [2, 5]: 2.75
CSC1=NS(=O)(=O)C(C)S1 (stereo not drawn) [IV-3]				chromatographic logP [2, 6]: 1.38
CSC1=NS(=O)(=O)C(C(C)C)S1 (stereo not drawn) [IV-4]				chromatographic logP [2, 6]: 2.8
CSC1=NS(=O)(=O)CC(C)(c2ccccc2)S1 (stereo not drawn) [IV-5]				chromatographic logP [2, 6]: 2.65
CSC1=NS(=O)(=O)CC(c2ccccc2)S1 (stereo not drawn) [IV-6]				chromatographic logP [2, 6]: 2.54
